# Assay results: ChEMBL document CHEMBL2429768, “Eco-friendly synthesis and antimicrobial activities of substituted-5-(1H-indol-3-yl)methylene)-2,2-dimethyl-1,3-dioxane-4,6-dione derivatives” (2013)
# Key:
# Assay type in all cases: functional
# [1] = system: Aspergillus niger; assay: Antifungal activity against Aspergillus niger at 50 ug/ml after 72 hrs by agar well diffusion method; settings: read-out: DIZ
# [2] = system: Fusarium oxysporum; assay: Antifungal activity against Fusarium oxysporum at 500 ug/ml after 72 hrs by agar well diffusion method; settings: read-out: DIZ
# [3] = system: Fusarium oxysporum; assay: Antifungal activity against Fusarium oxysporum at 300 ug/ml after 72 hrs by agar well diffusion method; settings: read-out: DIZ
# [4] = system: Fusarium oxysporum; assay: Antifungal activity against Fusarium oxysporum at 200 ug/ml after 72 hrs by agar well diffusion method; settings: read-out: DIZ
# [5] = system: Fusarium oxysporum; assay: Antifungal activity against Fusarium oxysporum at 100 ug/ml after 72 hrs by agar well diffusion method; settings: read-out: DIZ
# [6] = system: Fusarium oxysporum; assay: Antifungal activity against Fusarium oxysporum at 50 ug/ml after 72 hrs by agar well diffusion method; settings: read-out: DIZ
# [7] = system: Rhizoctonia solani; assay: Antifungal activity against Rhizoctonia solani at 500 ug/ml after 72 hrs by agar well diffusion method; settings: read-out: DIZ
# [8] = system: Rhizoctonia solani; assay: Antifungal activity against Rhizoctonia solani at 300 ug/ml after 72 hrs by agar well diffusion method; settings: read-out: DIZ
# [9] = system: Rhizoctonia solani; assay: Antifungal activity against Rhizoctonia solani at 200 ug/ml after 72 hrs by agar well diffusion method; settings: read-out: DIZ
# [10] = system: Rhizoctonia solani; assay: Antifungal activity against Rhizoctonia solani at 100 ug/ml after 72 hrs by agar well diffusion method; settings: read-out: DIZ
# [11] = system: Rhizoctonia solani; assay: Antifungal activity against Rhizoctonia solani at 50 ug/ml after 72 hrs by agar well diffusion method; settings: read-out: DIZ
# [12] = system: Bacillus subtilis; assay: Antibacterial activity against Bacillus subtilis at 500 ug/ml after 24 hrs by agar well diffusion method; settings: read-out: DIZ
# [13] = system: Bacillus subtilis; assay: Antibacterial activity against Bacillus subtilis at 300 ug/ml after 24 hrs by agar well diffusion method; settings: read-out: DIZ
# [14] = system: Bacillus subtilis; assay: Antibacterial activity against Bacillus subtilis at 200 ug/ml after 24 hrs by agar well diffusion method; settings: read-out: DIZ
# [15] = system: Bacillus subtilis; assay: Antibacterial activity against Bacillus subtilis at 100 ug/ml after 24 hrs by agar well diffusion method; settings: read-out: DIZ
# [16] = system: Bacillus subtilis; assay: Antibacterial activity against Bacillus subtilis at 50 ug/ml after 24 hrs by agar well diffusion method; settings: read-out: DIZ
# [17] = system: Staphylococcus aureus; assay: Antibacterial activity against Staphylococcus aureus ATCC 6538 at 500 ug/ml after 24 hrs by agar well diffusion method; settings: ATCC 6538, 24 h, read-out: DIZ
# [18] = system: Staphylococcus aureus; assay: Antibacterial activity against Staphylococcus aureus ATCC 6538 at 300 ug/ml after 24 hrs by agar well diffusion method; settings: ATCC 6538, 24 h, read-out: DIZ
# [19] = system: Staphylococcus aureus; assay: Antibacterial activity against Staphylococcus aureus ATCC 6538 at 200 ug/ml after 24 hrs by agar well diffusion method; settings: ATCC 6538, 24 h, read-out: DIZ
# [20] = system: Staphylococcus aureus; assay: Antibacterial activity against Staphylococcus aureus ATCC 6538 at 100 ug/ml after 24 hrs by agar well diffusion method; settings: ATCC 6538, 24 h, read-out: DIZ
# [21] = system: Escherichia coli; assay: Antibacterial activity against Escherichia coli ATCC 8739 at 300 ug/ml after 24 hrs by agar well diffusion method; settings: ATCC 8739, 24 h, read-out: DIZ
# [22] = system: Escherichia coli; assay: Antibacterial activity against Escherichia coli ATCC 8739 at 200 ug/ml after 24 hrs by agar well diffusion method; settings: ATCC 8739, 24 h, read-out: DIZ
# [23] = system: Escherichia coli; assay: Antibacterial activity against Escherichia coli ATCC 8739 at 100 ug/ml after 24 hrs by agar well diffusion method; settings: ATCC 8739, 24 h, read-out: DIZ
# [24] = system: Escherichia coli; assay: Antibacterial activity against Escherichia coli ATCC 8739 at 50 ug/ml after 24 hrs by agar well diffusion method; settings: ATCC 8739, 24 h, read-out: DIZ
# [25] = system: Klebsiella pneumoniae; assay: Antibacterial activity against Klebsiella pneumoniae at 500 ug/ml after 24 hrs by agar well diffusion method; settings: read-out: DIZ
# [26] = system: Klebsiella pneumoniae; assay: Antibacterial activity against Klebsiella pneumoniae at 300 ug/ml after 24 hrs by agar well diffusion method; settings: read-out: DIZ
# [27] = system: Klebsiella pneumoniae; assay: Antibacterial activity against Klebsiella pneumoniae at 200 ug/ml after 24 hrs by agar well diffusion method; settings: read-out: DIZ
# [28] = system: Klebsiella pneumoniae; assay: Antibacterial activity against Klebsiella pneumoniae at 50 ug/ml after 24 hrs by agar well diffusion method; settings: read-out: DIZ
# [29] = system: Escherichia coli; assay: Antibacterial activity against Escherichia coli ATCC 8739 at 500 ug/ml after 24 hrs by agar well diffusion method; settings: ATCC 8739, 24 h, read-out: DIZ
# [30] = system: Klebsiella pneumoniae; assay: Antibacterial activity against Klebsiella pneumoniae at 100 ug/ml after 24 hrs by agar well diffusion method; settings: read-out: DIZ
# [31] = system: Staphylococcus aureus; assay: Antibacterial activity against Staphylococcus aureus ATCC 6538 at 50 ug/ml after 24 hrs by agar well diffusion method; settings: ATCC 6538, 24 h, read-out: DIZ
# [32] = system: Aspergillus flavus; assay: Antifungal activity against Aspergillus flavus at 50 ug/ml after 72 hrs by agar well diffusion method; settings: read-out: DIZ
# [33] = system: Aspergillus flavus; assay: Antifungal activity against Aspergillus flavus at 100 ug/ml after 72 hrs by agar well diffusion method; settings: read-out: DIZ
# [34] = system: Aspergillus flavus; assay: Antifungal activity against Aspergillus flavus after 72 hrs by agar well diffusion method
# [35] = system: Aspergillus niger; assay: Antifungal activity against Aspergillus niger after 72 hrs by agar well diffusion method
# [36] = system: Fusarium oxysporum; assay: Antifungal activity against Fusarium oxysporum after 72 hrs by agar well diffusion method
# [37] = system: Rhizoctonia solani; assay: Antifungal activity against Rhizoctonia solani after 72 hrs by agar well diffusion method
# [38] = system: Bacillus subtilis; assay: Antibacterial activity against Bacillus subtilis after 24 hrs by agar well diffusion method
# [39] = system: Staphylococcus aureus; assay: Antibacterial activity against Staphylococcus aureus ATCC 6538 after 24 hrs by agar well diffusion method; settings: ATCC 6538, 24 h
# [40] = system: Escherichia coli; assay: Antibacterial activity against Escherichia coli ATCC 8739 after 24 hrs by agar well diffusion method; settings: ATCC 8739, 24 h
# [41] = system: Klebsiella pneumoniae; assay: Antibacterial activity against Klebsiella pneumoniae after 24 hrs by agar well diffusion method
# [42] = system: Aspergillus flavus; assay: Antifungal activity against Aspergillus flavus at 500 ug/ml after 72 hrs by agar well diffusion method; settings: read-out: DIZ
# [43] = system: Aspergillus flavus; assay: Antifungal activity against Aspergillus flavus at 300 ug/ml after 72 hrs by agar well diffusion method; settings: read-out: DIZ
# [44] = system: Aspergillus flavus; assay: Antifungal activity against Aspergillus flavus at 200 ug/ml after 72 hrs by agar well diffusion method; settings: read-out: DIZ
# [45] = system: Aspergillus niger; assay: Antifungal activity against Aspergillus niger at 500 ug/ml after 72 hrs by agar well diffusion method; settings: read-out: DIZ
# [46] = system: Aspergillus niger; assay: Antifungal activity against Aspergillus niger at 300 ug/ml after 72 hrs by agar well diffusion method; settings: read-out: DIZ
# [47] = system: Aspergillus niger; assay: Antifungal activity against Aspergillus niger at 200 ug/ml after 72 hrs by agar well diffusion method; settings: read-out: DIZ
# [48] = system: Aspergillus niger; assay: Antifungal activity against Aspergillus niger at 100 ug/ml after 72 hrs by agar well diffusion method; settings: read-out: DIZ
smiles,measurement,setting,value
COc1ccc2[nH]cc(C=C3C(=O)OC(C)(C)OC3=O)c2c1,zone of inhibition at 50 µg/mL,[1],7 mm
same,zone of inhibition at 500 µg/mL,[2],30 mm
same,zone of inhibition at 300 µg/mL,[3],24 mm
same,zone of inhibition at 200 µg/mL,[4],18 mm
same,zone of inhibition at 100 µg/mL,[5],15 mm
same,zone of inhibition at 50 µg/mL,[6],10 mm
same,zone of inhibition at 500 µg/mL,[7],31 mm
same,zone of inhibition at 300 µg/mL,[8],24 mm
same,zone of inhibition at 200 µg/mL,[9],19 mm
same,zone of inhibition at 100 µg/mL,[10],15 mm
same,zone of inhibition at 50 µg/mL,[11],10 mm
same,zone of inhibition at 500 µg/mL,[12],22 mm
same,zone of inhibition at 300 µg/mL,[13],14 mm
same,zone of inhibition at 200 µg/mL,[14],11 mm
same,zone of inhibition at 100 µg/mL,[15],9 mm
same,zone of inhibition at 50 µg/mL,[16],4 mm
same,zone of inhibition at 500 µg/mL,[17],28 mm
same,zone of inhibition at 300 µg/mL,[18],18 mm
same,zone of inhibition at 200 µg/mL,[19],15 mm
same,zone of inhibition at 100 µg/mL,[20],12 mm
same,zone of inhibition at 300 µg/mL,[21],22 mm
same,zone of inhibition at 200 µg/mL,[22],17 mm
same,zone of inhibition at 100 µg/mL,[23],15 mm
same,zone of inhibition at 50 µg/mL,[24],10 mm
same,zone of inhibition at 500 µg/mL,[25],34 mm
same,zone of inhibition at 300 µg/mL,[26],25 mm
same,zone of inhibition at 200 µg/mL,[27],20 mm
same,zone of inhibition at 50 µg/mL,[28],11 mm
same,zone of inhibition at 500 µg/mL,[29],33 mm
same,zone of inhibition at 100 µg/mL,[30],16 mm
same,zone of inhibition at 50 µg/mL,[31],8 mm
same,zone of inhibition at 50 µg/mL,[32],5 mm
same,zone of inhibition at 100 µg/mL,[33],9 mm
same,MIC,[34],35 µg/mL
same,MIC,[35],30 µg/mL
same,MIC,[36],25 µg/mL
same,MIC,[37],25 µg/mL
same,MIC,[38],20 µg/mL
same,MIC,[39],20 µg/mL
same,MIC,[40],10 µg/mL
same,MIC,[41],10 µg/mL
same,zone of inhibition at 500 µg/mL,[42],22 mm
same,zone of inhibition at 300 µg/mL,[43],13 mm
same,zone of inhibition at 200 µg/mL,[44],12 mm
same,zone of inhibition at 500 µg/mL,[45],24 mm
same,zone of inhibition at 300 µg/mL,[46],14 mm
same,zone of inhibition at 200 µg/mL,[47],15 mm
same,zone of inhibition at 100 µg/mL,[48],12 mm
CC1(C)OC(=O)C(=Cc2c[nH]c3ccc(Br)cc23)C(=O)O1,zone of inhibition at 50 µg/mL,[1],7 mm
same,zone of inhibition at 500 µg/mL,[2],31 mm
same,zone of inhibition at 300 µg/mL,[3],21 mm
same,zone of inhibition at 200 µg/mL,[4],17 mm
same,zone of inhibition at 100 µg/mL,[5],14 mm
same,zone of inhibition at 50 µg/mL,[6],10 mm
same,zone of inhibition at 500 µg/mL,[7],32 mm
same,zone of inhibition at 300 µg/mL,[8],24 mm
same,zone of inhibition at 200 µg/mL,[9],19 mm
same,zone of inhibition at 100 µg/mL,[10],15 mm
same,zone of inhibition at 50 µg/mL,[11],10 mm
same,zone of inhibition at 500 µg/mL,[12],25 mm
same,zone of inhibition at 300 µg/mL,[13],17 mm
same,zone of inhibition at 200 µg/mL,[14],13 mm
same,zone of inhibition at 100 µg/mL,[15],11.5 mm
same,zone of inhibition at 50 µg/mL,[16],7 mm
same,zone of inhibition at 500 µg/mL,[17],27 mm
same,zone of inhibition at 300 µg/mL,[18],19 mm
same,zone of inhibition at 200 µg/mL,[19],15 mm
same,zone of inhibition at 100 µg/mL,[20],12 mm
same,zone of inhibition at 300 µg/mL,[21],23 mm
same,zone of inhibition at 200 µg/mL,[22],16 mm
same,zone of inhibition at 100 µg/mL,[23],15.5 mm
same,zone of inhibition at 50 µg/mL,[24],10.4 mm
same,zone of inhibition at 500 µg/mL,[25],34 mm
same,zone of inhibition at 300 µg/mL,[26],25 mm
same,zone of inhibition at 200 µg/mL,[27],20 mm
same,zone of inhibition at 50 µg/mL,[28],11 mm
same,zone of inhibition at 500 µg/mL,[29],32 mm
same,zone of inhibition at 100 µg/mL,[30],16 mm
same,zone of inhibition at 50 µg/mL,[31],8 mm
same,zone of inhibition at 50 µg/mL,[32],5 mm
same,zone of inhibition at 100 µg/mL,[33],10 mm
same,MIC,[34],35 µg/mL
same,MIC,[35],30 µg/mL
same,MIC,[36],25 µg/mL
same,MIC,[37],25 µg/mL
same,MIC,[38],20 µg/mL
same,MIC,[39],20 µg/mL
same,MIC,[40],10 µg/mL
same,MIC,[41],10 µg/mL
same,zone of inhibition at 500 µg/mL,[42],24 mm
same,zone of inhibition at 300 µg/mL,[43],17 mm
same,zone of inhibition at 200 µg/mL,[44],13 mm
same,zone of inhibition at 500 µg/mL,[45],26 mm
same,zone of inhibition at 300 µg/mL,[46],19 mm
same,zone of inhibition at 200 µg/mL,[47],15 mm
same,zone of inhibition at 100 µg/mL,[48],11 mm
